In data set [1] the test system is PAM212 cells. Kind of data set: Transfection of PAM212 cells with pGTmCMV.IFN-GFP plasmid using gemini cationic surfactants and DOPE; IFNγ by ELISA. It is filed as cell-based, murine. The note with it: for IFN-γ expression: PAM212 cells, pGTmCMV.IFN-GFP, plasmid-gemini surfactant charge ratio 1:10 in 1 mM DOPE vesicles; for transfection efficiency (in words): dependence on spacer length, charge ratio 1:10, DOPE; for IFNγ levels versus the other compounds with longer linkers: p<0.001. On the procedure: The pGTmCMV.IFN-GFP plasmid was used at a concentration of 0.2 μg/well for transfection. Eight gemini surfactants were tested in this study (FIG. 1) (Wettig et al., 2001). Aqueous solutions (1.5 mM) of the gemini cationic surfactants were prepared and filtered through 0.2 μm Acrodisc® filters (Pall Gelman, Ann Arbor, Mich.). Lipid vesicles were prepared by using sonication techniques. 1,2 dioleyl-sn-glycero-phosphatidylethanolamine (DOPE) (Avanti Polar Lipids, Alabaster, Ala.) and α-tocopherol (Spectrum, Gardena Calif.) in 1:0.2 weight ratios were dissolved in 100% ethanol (Commercial Alcohols Inc., Brampton, ON) at a concentration of 10 mg lipid/mL in a round bottom flask. The solvent was evaporated in a rotary evaporator (Rotavapor RE111 BÜCHI Laboratoriums-Technik AG, Switzerland) at 100 rpm and 55° C. to deposit a thin film on the walls of the vessel. To remove traces of organic solvent, the lipid was lyophilized overnight. Glass beads were added to the flask and the lipid was resuspended at 1 μmol/mL concentration in 9.25% w/v isotonic sucrose (Spectrum, Gardena, Calif.) solution (pH 9). The suspensions were bath-sonicated (Branson 2200, Cleansonic Orange, Va.) for 3 hours at 55° C., followed by filtration through 0.45 μm Acrodisc® filters. PAM 212 murine keratinocyte cells were prepared for transfection as described earlier.
The transfection mixtures were prepared as follows: 0.2 μg of plasmid was mixed with aliquots of gemini surfactant solution to obtain plasmid DNA:gemini surfactant charge ratios of 1:5, 1:10, 1:20 or 1:40 and incubated at room temperature for 15 minutes. To this mixture, 25 μL of DOPE liposomes were added. The transfection mixtures were incubated for 30 minutes at room temperature prior to transfection and added to the cells, dropwise. The plates were incubated for periods of 5 or 6-24 hours at 37° C. in a CO2 incubator. The transfection mix was replaced with supplemented MEM and the plates further incubated for 24 hours. The supernatants were collected and stored at −20° C. As a positive control, the cells were transfected with Lipofectamine Plus™ Reagent, as described above.
ELISAs were performed using round bottom 96-well plates (Immulon II, Dynatech Laboratories, Chantilly, Va.). The plates were coated with 50 μL/well of capture antibody, rat anti-mouse IFNγ (Pharmingen, Mississauga, ON) 2 μg/mL coating buffer and incubated for 24 hours at 4° C. The wells were blocked with 1% bovine serum albumin (BSA) (New England Biolabs, Mississauga, ON) solution in PBS at room temperature for one hour. IFNγ standard (Pharmingen) of 250-2000 pg/mL concentration and was used in 1% BSA solution on plates. Protein resuspension buffer was used as a blank control. The supernatants from cell cultures and the skin and lymph homogenates, as well as the serum from mice, were diluted one in four on the plates and incubated overnight at 4° C. Biotinylated rat anti mouse IFNγ (Pharmingen) was added at […] concentration in 1% BSA solution. The plates were incubated for a further 2 h at room temperature. The streptavidin-alkaline phosphatase conjugate (Jackson Immuno Research Laboratories, Inc., West Grove, Pa.) was added in 1:5000 dilution and incubated for 1 h at room temperature, followed by addition of 4-nitrophenyl phosphate di(tris) salt 1 mg/mL in PNPP buffer (1% diethanolamine, 0.5 mM MgCl2, pH 9.8) (Sigma). Optical density of the samples was measured at 405 nm using a Benchmark Microplate Reader (BioRad, Mississauga, ON). The concentration of the IFNγ vas calculated from the standard IFNγ curve, using recombinant murine IFNγ (Pharmingen).
Background: ELISA stands for enzyme-linked immunosorbent assay.

For data set [2] the following is noted: cited from earlier work; for Γ × 10^6 (surface excess concentration): from Alami et al., 1993; for CMC (critical micellar concentration) / a (head group areas based on activity) / α (degree of micelle ionization): from Wettig et al., 2001; for Krafft point: from Zana; for Krafft point / distance between the cationic head groups: 2002; for distance between the cationic head groups: estimated, Chen et al.

Data set [3] has as its system PAM212 cells. Kind of data set: FACS of transfected PAM212 cells: GFP fluorescent cells and cell viability. The class given is cell-based, murine. On the procedure: PAM212 cells were seeded on 6-well plates (Costar, Corning N.Y.) at a density of 1×10^6 cells/well density and grown to 60-80% confluency. The supplemented MEM was changed to MEM one hour prior to transfection. The transfection mixes were prepared with 1 μg pGTmCMV.IFN-GFP, using the 16-3-16 gemini cationic surfactant and DOPE liposomes at plasmid DNA:gemini cationic surfactant charge ratio of 1:5, 1:10, 1:20 or 1:40, as described earlier, keeping the concentration of the reagents constant. The cells were detached using Versene solution containing 0.05% trypsin (Sigma), pelleted at 4° C. and 1000 g for 5 minutes, washed twice with PBS and resuspended in Fa-cola (10 mM PBS pH 7.2, 0.2% gelatin, 0.03% sodium azide). Triplicate samples were pooled. The cell sorter was calibrated with non-transfected cells and 10^4 cells of each sample were counted.
The formulations were optimized for plasmid DNA:gemini surfactant charge ratio correlated with cell toxicity using the 16-3-16 compound. The optimal plasmid DNA:gemini surfactant charge ratio was determined by comparing the percentage of fluorescent cells (FIG. 5A) with cell viability (FIG. 5B). The cells were transfected with either transfection mixtures of the 16-3-16 gemini surfactant and DOPE at plasmid DNA:gemini surfactant charge ratio of 1:5, 1:10, 1:20 or 1:40, or Lipofectamine Plus™ Reagent (L), using 0.2 μg pGTmCMV.IFN-GFP, and compared to non-transfected cells (NT). Triplicate samples were pooled and 1×10^4 cells counted. […] At plasmid DNA:gemini surfactant charge ratio of 1:40 the transfection efficiency was 3.13%, however, cell viability fell to 20%. […] No fluorescence was detected in the non-transfected cells.

Setting [4] is: plasmid DNA:gemini surfactant charge ratio 1:40, with DOPE.
Where [5] appears, read: plasmid:gemini surfactant charge ratio 1:10, with DOPE.

Structures are written as SMILES.

For the compound `CCCCCCCCCCCC[N+](C)(C)CCCCCCCCCC[N+](C)(C)CCCCCCCCCCCC.[Br-].[Br-]` [12-10-12], the IFN-γ expression in the data set on PAM212 cells [1] is recorded as 0.29 ± 0.10 ng/5 × 10^5 cells. Also, in data set [2], the “Γ × 10^6 (surface excess concentration)” value is reported as 0.75 mol/m^2, the “CMC (critical micellar concentration)” value is given as 0.62 ± 0.03 mM, the “a (head group areas based on activity)” value is 2.16 nm^2/molecule and the “α (degree of micelle ionization)” value is recorded as 0.51 ± 0.06. Also, the Krafft point in data set [2] is below 0 °C.

`CCCCCCCCCCCC[N+](C)(C)CCCCCCCCCCCCCCCC[N+](C)(C)CCCCCCCCCCCC.[Br-].[Br-]` [12-16-12]: in the data set with PAM212 cells [1], the IFN-γ expression was determined as 0.49 ± 0.19 ng/5 × 10^5 cells. In data set [2], the “Γ × 10^6 (surface excess concentration)” value is recorded as 0.83 mol/m^2, the “CMC (critical micellar concentration)” value was 0.12 ± 0.01 mM, the “a (head group areas based on activity)” value is reported as 1.44 nm^2/molecule and the “α (degree of micelle ionization)” value is 0.59 ± 0.08. Besides, the Krafft point in data set [2] is 24.3 °C.

Take `CCCCCCCCCCCC[N+](C)(C)CCC[N+](C)(C)CCCCCCCCCCCC.[Br-].[Br-]` [12-3-12]: in the data set with PAM212 cells [1], the IFN-γ expression was found to be 1.11 ± 0.65 ng/5 × 10^5 cells, the “transfection efficiency (in words)” value was “highest activity” and the “IFNγ levels versus the other compounds with longer linkers” value (shortened to “IFNγ levels versus the other compounds”) is “Significantly higher”. In data set [2], the “distance between the cationic head groups” value is 0.49 nm, the “Γ × 10^6 (surface excess concentration)” value is given as 1.58 mol/m^2, the “CMC (critical micellar concentration)” value is on record as 0.98 ± 0.04 mM and the “a (head group areas based on activity)” value is listed as 0.98 nm^2/molecule. In data set [2], the “α (degree of micelle ionization)” value is on record as 0.23 ± 0.02 and the Krafft point is 12.7 °C.

On to `CCCCCCCCCCCC[N+](C)(C)CCCCCCCC[N+](C)(C)CCCCCCCCCCCC.[Br-].[Br-]` [12-8-12], for which, in the data set with PAM212 cells [1], the IFN-γ expression is reported as 0.24 ± 0.12 ng/5 × 10^5 cells. Moreover, in data set [2], the “Γ × 10^6 (surface excess concentration)” value is on record as 0.94 mol/m^2, the “CMC (critical micellar concentration)” value is given as 0.84 ± 0.03 mM, the “a (head group areas based on activity)” value is recorded as 1.78 nm^2/molecule and the “α (degree of micelle ionization)” value is on record as 0.46 ± 0.04. Besides, the Krafft point in data set [2] is below 0 °C.

As to `CCCCCCCC/C=C\CCCCCCCC(=O)OC[C@H](COP(=O)(O)OCCN)OC(=O)CCCCCCC/C=C\CCCCCCCC` [DOPE, 1,2 dioleyl-sn-glycero-phosphatidylethanolamine, reference compound], the “IFNγ detection after transfection with single component alone” value in the data set on PAM212 cells [1] (agent alone, or plasmid without transfection agents) is reported as “No IFNγ was detected”.

On to `CCCCCCCCCCCC[N+](C)(C)CCCC[N+](C)(C)CCCCCCCCCCCC.[Br-].[Br-]` [12-4-12], for which, in the data set with PAM212 cells [1], the IFN-γ expression is 0.66 ± 0.32 ng/5 × 10^5 cells and the “IFNγ levels versus the other compounds” value is listed as “Significantly higher”. Besides, in data set [2], the “Γ × 10^6 (surface excess concentration)” value was 1.43 mol/m^2, the “CMC (critical micellar concentration)” value was 1.17 ± 0.04 mM, the “a (head group areas based on activity)” value is given as 1.10 nm^2/molecule and the “α (degree of micelle ionization)” value is 0.26 ± 0.02. Also, in data set [2], the Krafft point is 10.6 °C.

In the case of `CCCCCCCCCCCC[N+](C)(C)CCCCCCCCCCCC[N+](C)(C)CCCCCCCCCCCC` [12-12-12], in the data set on PAM212 cells [1], the IFN-γ expression was found to be 0.33 ± 0.16 ng/5 × 10^5 cells. In addition, in data set [2], the “Γ × 10^6 (surface excess concentration)” value is 0.73 mol/m^2, the “CMC (critical micellar concentration)” value is on record as 0.36 ± 0.03 mM, the “a (head group areas based on activity)” value is listed as 2.14 nm^2/molecule and the “α (degree of micelle ionization)” value is recorded as 0.56 ± 0.08. In addition, the Krafft point in data set [2] was 13.6 °C.

One may read the cell viability as the share of living cells, or the viability signal relative to a control. Consider `CCCCCCCCCCCCCCCC[N+](C)(C)CCC[N+](C)(C)CCCCCCCCCCCCCCCC` [16-3-16], for which, in the data set on PAM212 cells [1], the IFN-γ expression was determined as 1.63 ± 1.37 ng/5 × 10^5 cells, the “transfection efficiency (in words)” value is given as “highest activity” and the “IFNγ levels versus the other compounds” value is “Significantly higher”. For the same compound, in the data set on PAM212 cells [3] (setting [4]), the cell viability is 20% and the “transfection efficiency (fluorescent cells)” value came to 3.13%. Also, in the data set with PAM212 cells [3] (setting [5]), the cell viability is 74% and the “percentage of fluorescent cells” value stood at 2.36%. Moreover, in data set [2], the “Γ × 10^6 (surface excess concentration)” value was 1.08 mol/m^2, the “CMC (critical micellar concentration)” value is 0.026 ± 0.001 mM, the “a (head group areas based on activity)” value is 1.02 nm^2/molecule and the “α (degree of micelle ionization)” value was 0.35 ± 0.02. For the same compound, in data set [2], the Krafft point is 42 °C.

Consider `CCCCCCCCCCCC[N+](C)(C)CCCCCC[N+](C)(C)CCCCCCCCCCCC.[Br-].[Br-]` [12-6-12], for which, in the data set with PAM212 cells [1], the IFN-γ expression came out at 0.48 ± 0.17 ng/5 × 10^5 cells. For the same compound, in data set [2], the “distance between the cationic head groups” value is reported as 0.91 nm, the “Γ × 10^6 (surface excess concentration)” value is reported as 1.16 mol/m^2, the “CMC (critical micellar concentration)” value is recorded as 1.09 ± 0.04 mM and the “a (head group areas based on activity)” value is 1.40 nm^2/molecule. Moreover, in data set [2], the “α (degree of micelle ionization)” value is 0.34 ± 0.02 and the Krafft point was below 0 °C.

These data come from patent US20080112915A1, “Dna Delivery with Gemini Cationic Surfactants” (priority 2003, published 2008).
